According to ChEMBL document CHEMBL5150064 (J Med Chem, 2022):
≈ marks a conversion by molar mass, not a printed value. Calls of active or inactive are those of the source. The calls are words filed in the database; no cut-off is given here.

Tests used:
[1] = molecular target: Phosphatidylinositol 4,5-bisphosphate 3-kinase catalytic subunit alpha isoform (Homo sapiens, UniProt P42336); assay: Inhibition of PI3Kalpha (unknown origin) using PIP2:3PS as substrate in presence of ATP measured after 120 mins by ADP-Glo assay
[2] = species on record: Homo sapiens; assay: Selectivity ratio of Ki for PI3Kdelta (unknown origin) to Ki for PI3Kalpha (unknown origin)
[3] = species on record: Homo sapiens; assay: Selectivity ratio of EC50 for PI3Kalpha H1047R mutant in human HCC1954 cells assessed as reduction in PRAS40 phosphorylation to EC50 for wild type PI3Kalpha in human HDQ-P1 cells assessed as reduction in PRAS40 phosphorylation; format: cell-based
[4] = Lipophilicity, logD of compound in 1-Octanol/PBS at pH 7.4 by LC-MS/MS method; format: physicochemical
[5] = Apparent permeability across apical to basolateral side in MDCK cells at 10 uM measured upto 180 mins by LC-MS/MS method; format: ADME, cell-based, Canis lupus familiaris; conditions: dog
[6] = Clearance in Sprague-Dawley rat plasma at 1 mg/kg, iv measured upto 8 hrs by LC-MS/MS analysis; format: ADME, organism-based
[7] = Oral bioavailability in Sprague-Dawley rat plasma at 5 mg/kg measured upto 8 hrs by LC-MS/MS method; format: ADME, organism-based
[8] = molecular target: Phosphatidylinositol 4,5-bisphosphate 3-kinase catalytic subunit alpha isoform (Homo sapiens, UniProt P42336, H1047R)
[9] = molecular target: T1, Phosphatidylinositol 4,5-bisphosphate 3-kinase catalytic subunit delta isoform (Homo sapiens) (UniProt O00329); assay: Inhibition of PI3Kdelta in human B-cells assessed as reduction in CD69 expression preincubated for 1 hr followed by IgM stimulation for 18 hrs by flow cytometry analysis; format: cell-based; conditions: B-cell
T1 sequence (whole entry): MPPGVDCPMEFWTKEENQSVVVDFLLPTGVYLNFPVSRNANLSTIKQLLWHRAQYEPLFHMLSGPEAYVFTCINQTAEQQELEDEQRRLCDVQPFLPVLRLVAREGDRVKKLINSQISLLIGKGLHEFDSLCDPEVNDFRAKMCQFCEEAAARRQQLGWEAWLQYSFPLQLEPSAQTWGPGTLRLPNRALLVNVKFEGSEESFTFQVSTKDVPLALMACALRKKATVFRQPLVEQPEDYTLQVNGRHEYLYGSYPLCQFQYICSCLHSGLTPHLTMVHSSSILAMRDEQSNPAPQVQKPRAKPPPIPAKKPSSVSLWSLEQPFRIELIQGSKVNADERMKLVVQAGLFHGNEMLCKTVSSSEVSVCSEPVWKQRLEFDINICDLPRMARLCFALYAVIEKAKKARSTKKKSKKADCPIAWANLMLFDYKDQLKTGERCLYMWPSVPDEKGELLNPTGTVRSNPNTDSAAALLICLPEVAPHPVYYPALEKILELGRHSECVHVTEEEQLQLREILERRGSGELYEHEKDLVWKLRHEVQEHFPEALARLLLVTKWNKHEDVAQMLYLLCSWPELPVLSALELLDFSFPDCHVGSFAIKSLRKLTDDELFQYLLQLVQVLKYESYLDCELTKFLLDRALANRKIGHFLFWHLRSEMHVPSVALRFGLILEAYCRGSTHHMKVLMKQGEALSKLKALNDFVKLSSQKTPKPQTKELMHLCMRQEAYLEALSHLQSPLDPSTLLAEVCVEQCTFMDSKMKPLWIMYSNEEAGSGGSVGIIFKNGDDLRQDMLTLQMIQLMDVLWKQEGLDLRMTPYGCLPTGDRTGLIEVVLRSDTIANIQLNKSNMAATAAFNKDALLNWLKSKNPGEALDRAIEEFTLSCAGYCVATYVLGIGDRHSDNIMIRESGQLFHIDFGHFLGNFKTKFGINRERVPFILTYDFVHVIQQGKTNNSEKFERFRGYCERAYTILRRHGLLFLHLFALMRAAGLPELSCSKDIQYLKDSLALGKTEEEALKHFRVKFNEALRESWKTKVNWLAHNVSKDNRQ

[10] = Kinetic solubility of the compound at pH 7.4; format: physicochemical; conditions: buffer, read-out: Kinetic_solubility
[11] = test system: Phosphatidylinositol 4,5-bisphosphate 3-kinase catalytic subunit alpha isoform (Homo sapiens), P42336 [H1047R]; assay: Induction of P110alpha H1047R mutant degradation in human HCC1954 cells at 0.012 to 1 uM after 24 hrs; format: cell-based; conditions: dose 0.012-1 µM
[12] = test system: Phosphatidylinositol 4,5-bisphosphate 3-kinase catalytic subunit alpha isoform (Homo sapiens), P42336 [H1047R]; assay: Inhibition of PI3Kalpha H1047R mutant in human HCC1954 cells assessed as reduction in PRAS40 phosphorylation after 24 hrs by electrochemiluminescent assay
[13] = species on record: Homo sapiens; assay: Selectivity ratio of IC90 for inhibition of PI3Kdelta in human B-cells assessed as reduction in CD69 expression to EC50 for inhibition of PI3Kalpha H1047R mutant in human HCC1954 cells; format: cell-based

Phosphatidylinositol 4,5-bisphosphate 3-kinase catalytic subunit alpha isoform (Homo sapiens, UniProt P42336, H1047R), sequence (P42336 whole entry H1047R, canonical isoform): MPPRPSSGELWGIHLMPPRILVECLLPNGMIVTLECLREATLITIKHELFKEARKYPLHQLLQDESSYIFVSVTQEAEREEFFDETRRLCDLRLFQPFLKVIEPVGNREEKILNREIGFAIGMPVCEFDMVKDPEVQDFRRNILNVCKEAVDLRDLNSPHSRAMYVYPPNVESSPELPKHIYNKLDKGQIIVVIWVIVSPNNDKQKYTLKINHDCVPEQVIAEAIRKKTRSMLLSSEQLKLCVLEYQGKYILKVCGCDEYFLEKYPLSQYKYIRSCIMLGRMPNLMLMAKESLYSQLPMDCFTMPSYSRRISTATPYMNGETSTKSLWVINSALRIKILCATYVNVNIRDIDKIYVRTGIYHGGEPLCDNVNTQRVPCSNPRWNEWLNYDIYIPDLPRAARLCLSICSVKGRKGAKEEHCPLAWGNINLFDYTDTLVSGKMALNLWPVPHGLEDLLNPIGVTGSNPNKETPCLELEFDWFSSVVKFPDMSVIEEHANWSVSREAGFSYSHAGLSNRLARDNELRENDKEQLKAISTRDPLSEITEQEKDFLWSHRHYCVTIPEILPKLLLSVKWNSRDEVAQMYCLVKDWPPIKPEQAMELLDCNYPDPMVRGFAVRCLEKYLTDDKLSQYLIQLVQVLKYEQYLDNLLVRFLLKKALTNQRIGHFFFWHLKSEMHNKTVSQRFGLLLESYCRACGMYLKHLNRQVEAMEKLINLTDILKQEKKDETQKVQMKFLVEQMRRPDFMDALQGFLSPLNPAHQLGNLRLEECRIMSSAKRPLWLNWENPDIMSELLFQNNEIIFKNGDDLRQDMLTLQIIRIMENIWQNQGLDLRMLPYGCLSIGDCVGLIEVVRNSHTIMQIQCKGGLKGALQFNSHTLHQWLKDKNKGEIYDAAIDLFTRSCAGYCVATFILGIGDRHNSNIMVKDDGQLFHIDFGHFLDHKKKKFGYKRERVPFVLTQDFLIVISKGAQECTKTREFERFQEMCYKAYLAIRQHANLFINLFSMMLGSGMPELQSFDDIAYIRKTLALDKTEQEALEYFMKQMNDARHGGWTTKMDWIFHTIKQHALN
Phosphatidylinositol 4,5-bisphosphate 3-kinase catalytic subunit alpha isoform (Homo sapiens), P42336 [H1047R], sequence (P42336 whole entry H1047R, canonical isoform): as above
Phosphatidylinositol 4,5-bisphosphate 3-kinase catalytic subunit alpha isoform (Homo sapiens, UniProt P42336), sequence (P42336 whole entry, canonical isoform): as the sequence (P42336 whole entry H1047R, canonical isoform) above, with R1047H counted along it

SMILES | Ki [1] [nM] | Ratio Ki [2] | logD [4] | Papp A→B at 3 h, 10 µM [5] [×10⁻⁶ cm/s] | clearance [6] [mL/min/kg] | bioavailability [7] [%] | EC50 [8] [nM] | IC90 [9] [nM] | solubility kinetic [10] [µM] | Activity [11] | inhibition [12] | Ratio EC50 [3] | Selectivity ratio [13]
CC(C)[C@H](Nc1ccc2c(c1)OCCn1cc(N3C(=O)OC[C@H]3C(F)(F)F)nc1-2)C(N)=O | 0.692 | 94 | 1.7 | 1.9 | 61 | 137 | 157 |  |  |  |  | 2.3 | 
CC(C)n1ncnc1-c1cn2c(n1)-c1ccc(O[C@@H](C)C(N)=O)cc1OCC2 |  |  | 1.9 |  |  |  |  | 147 |  |  |  |  | 
C[C@H](Oc1ccc2c(c1)OCCn1cc(-c3ncnn3CC(F)(F)F)nc1-2)C(N)=O |  | 14 | 2.2 |  |  |  |  |  |  |  |  |  | 
NC(=O)[C@@H]1CCCN1c1ccc2c(c1)OCCn1cc(N3CCOC3=O)nc1-2 | 5.75 | 15 | 0.6 | 3.1 |  |  |  |  | 200 (≈ 76.7 µg/mL) |  |  |  | 
COC[C@@H]1COC(=O)N1c1cn2c(n1)-c1ccc(N3CCC[C@H]3C(N)=O)cc1OCC2 | 3.24 | 8 | 0.8 |  |  |  |  |  | 137 (≈ 58.6 µg/mL) |  |  |  | 
C[C@H]1CN(c2cn3c(n2)-c2ccc(N4CCC[C@H]4C(N)=O)cc2OCC3)C(=O)O1 | 6.49 | 6 | 1.1 |  |  |  |  |  | 20 (≈ 7.95 µg/mL) |  |  |  | 
CC[C@H](Nc1ccc2c(c1)OCCn1cc(N3C(=O)OC[C@H]3C(F)(F)F)nc1-2)C(N)=O | 0.157 | 146 | 1.4 | 1.7 | 91 | 82 | 56 |  |  |  |  | 3.6 | 
NC(=O)[C@@H](Nc1ccc2c(c1)OCCn1cc(N3C(=O)OC[C@H]3C(F)F)nc1-2)C1CC1 |  |  | 1.2 | 3.2 | 67 | 41 | 28 | 307 |  | Active |  |  | 
NC(=O)[C@@H]1CCCN1c1ccc2c(c1)OCCn1cc(N3CCOCCC3=O)nc1-2 | 3.82 | 6 | 0.7 |  |  |  |  |  | 44 (≈ 18.1 µg/mL) |  |  |  | 
C[C@H](Oc1ccc2c(c1)OCCn1cc(N3C(=O)OC[C@H]3C(F)F)nc1-2)C(N)=O |  | 52 |  |  |  |  |  |  |  |  |  |  | 
NC(=O)[C@@H]1CCCN1c1ccc2c(c1)OCCn1cc(N3CCOCC3=O)nc1-2 | 2.52 | 8 | 0.7 |  |  |  |  |  | 65 (≈ 25.8 µg/mL) |  |  |  | 
NC(=O)[C@@H](Nc1ccc2c(c1)OCCn1cc(N3C(=O)OC[C@H]3CF)nc1-2)C1CC1 |  |  | 0.7 | 0.8 | 63 |  |  |  |  |  |  |  | 
NC(=O)[C@@H]1CCCN1c1ccc2c(c1)OCCn1cc(N3CCCOCC3=O)nc1-2 | 0.32 | 15 | 0.7 |  |  |  |  |  | 11 (≈ 4.53 µg/mL) |  |  |  | 
CC1(C)C(=O)NC(=O)N1c1cn2c(n1)-c1ccc(N3CCC[C@H]3C(N)=O)cc1OCC2 | 0.681 | 5 | 0.7 | 0.3 |  |  |  |  | 114 (≈ 48.4 µg/mL) |  |  |  | 
C[C@H](Oc1ccc2c(c1)OCCn1cc(-c3nc(CO)nn3CC(F)(F)F)nc1-2)C(N)=O | 0.062 | 15 | 1.5 | 1.5 | 50 | 5 | 39 |  |  |  |  | 9.5 | 
CC(C)n1nc(N)nc1-c1cn2c(n1)-c1ccc(O[C@@H](C)C(N)=O)cc1OCC2 | 0.107 | 17 | 1.1 | 0.5 |  |  | 65 |  |  |  |  | 3.1 | 
NC(=O)[C@@H]1CCCN1c1ccc2c(c1)OCCn1cc(N3CCn4nccc4C3=O)nc1-2 | 0.44 | 7 | 1.2 |  |  |  |  |  | 2 (≈ 0.867 µg/mL) |  |  |  | 
C[C@@H]1CN(c2cn3c(n2)-c2ccc(N4CCC[C@H]4C(N)=O)cc2OCC3)C(=O)O1 | 11.5 | 15 | 1.1 |  |  |  |  |  | 52 (≈ 20.7 µg/mL) |  |  |  | 
NC(=O)[C@@H]1CCCN1c1ccc2c(c1)OCCn1cc(N3CCCOC3=O)nc1-2 | 30.3 | 9 |  |  |  |  |  |  |  |  |  |  | 
CC(C)n1nc(N)nc1-c1cn2c(n1)-c1ccc(N3CCC[C@H]3C(N)=O)cc1OCC2 | 0.026 | 8 | 1.5 | 0.3 |  |  |  |  | 92 (≈ 38.9 µg/mL) |  |  |  | 
Cc1nc(-c2cn3c(n2)-c2ccc(-c4cnn(C(C)(C)C(N)=O)c4)cc2OCC3)n(C(C)C)n1 [TASELISIB] |  |  | 2.3 |  |  |  |  | 3.1 |  |  |  |  | 
CO[C@H]1CCN(c2cn3c(n2)-c2ccc(N4CCC[C@H]4C(N)=O)cc2OCC3)C1=O | 3.15 | 4 | 0.9 | 2.6 |  |  |  |  | 154 (≈ 63.4 µg/mL) |  |  |  | 

Second part, led by results:

Ki [1] [nM] | Ratio Ki [2] | logD [4] | Papp A→B at 3 h, 10 µM [5] [×10⁻⁶ cm/s] | clearance [6] [mL/min/kg] | bioavailability [7] [%] | EC50 [8] [nM] | IC90 [9] [nM] | solubility kinetic [10] [µM] | Activity [11] | inhibition [12] | SMILES | Ratio EC50 [3] | Selectivity ratio [13]
0.323 | 182 |  |  |  |  |  |  |  |  |  | NC(=O)[C@@H](Nc1ccc2c(c1)OCCn1cc(N3C(=O)OC[C@H]3C(F)(F)F)nc1-2)C1CCC1 |  | 
0.042 | 22 | 1.8 | 8.4 |  |  |  |  | 131 (≈ 55.7 µg/mL) |  |  | CC(C)[C@@H]1COC(=O)N1c1cn2c(n1)-c1ccc(N3CCC[C@H]3C(N)=O)cc1OCC2 |  | 
 | 24 | 0.7 | 2.1 | 23 | 59 |  |  | 150 (≈ 59.6 µg/mL) |  |  | C[C@@H]1COC(=O)N1c1cn2c(n1)-c1ccc(N3CCC[C@H]3C(N)=O)cc1OCC2 |  | 
0.8 |  | 1.6 |  |  |  |  |  |  |  |  | NC(=O)[C@@H]1CCCN1c1ccc2c(c1)OCCn1cc(N3C(=O)CC[C@H]3C(F)(F)F)nc1-2 |  | 
 | 46 | 0.8 | 2.6 |  |  |  |  | 159 (≈ 66.1 µg/mL) | Active | Active | NC(=O)[C@@H]1CCCN1c1ccc2c(c1)OCCn1cc(N3C(=O)OC[C@H]3CF)nc1-2 |  | 
0.289 | 25 |  |  |  |  |  |  |  |  |  | NC(=O)[C@@H]1[C@H](F)CCN1c1ccc2c(c1)OCCn1cc(N3C(=O)OC[C@H]3C(F)(F)F)nc1-2 |  | 
0.097 | 27 |  |  |  |  |  |  |  |  |  | CO[C@@H]1CCN(c2ccc3c(c2)OCCn2cc(N4C(=O)OC[C@H]4C(F)(F)F)nc2-3)[C@@H]1C(N)=O |  | 
0.095 | 171 | 0.9 | 1 | 57 | 65 | 49 |  |  |  |  | C[C@H](Nc1ccc2c(c1)OCCn1cc(N3C(=O)OC[C@H]3C(F)(F)F)nc1-2)C(N)=O | 2.7 | 
0.15 | 15 | 1.4 | 3.2 | 35 | 57 | 40 |  | 130 (≈ 58.7 µg/mL) | Active |  | NC(=O)[C@@H]1CCCN1c1ccc2c(c1)OCCn1cc(N3C(=O)OC[C@H]3C(F)(F)F)nc1-2 |  | 
 | 34 | 1.3 | 4.3 | 41 | 35 |  | 103 | 11 (≈ 4.77 µg/mL) | Active | Active | NC(=O)[C@@H]1CCCN1c1ccc2c(c1)OCCn1cc(N3C(=O)OC[C@H]3C(F)F)nc1-2 |  | 6.4
2.97 | 13 |  |  |  |  |  |  |  |  |  | NC(=O)[C@@H]1COCCN1c1ccc2c(c1)OCCn1cc(N3C(=O)OC[C@H]3C(F)(F)F)nc1-2 |  | 
